Tested on: A549
Assay: Cytotoxicity against human A549 cells after 2 days by AlamarBlue assay
Conditions: A549, 48 h

COC1=C2C[C@@H](C)C[C@H](OC)[C@H](O)[C@@H](C)/C=C(\C)[C@H](OC(N)=O)[C@@H](OC)/C=C\C=C(/C)C(=O)NC(=CC1=O)C2=O [GELDANAMYCIN]
IC50: 150 nM

CO[C@H]1[C@@H](OC)C[C@H](C)[C@@H](OC)C2=CC(=O)C=C(NC(=O)/C(C)=C/C=C/[C@H](OC)[C@@H](OC(N)=O)/C(C)=C/[C@@H]1C)C2=O [HERBIMYCIN]
IC50: 150 nM

— ChEMBL document CHEMBL2417371, “Herbimycins D-F, ansamycin analogues from Streptomyces sp. RM-7-15” (J Nat Prod, 2013)
